Key:
Experiment in all cases: KINOMEscan competition binding
Conditions in all cases: compound 10.0 µM
ADCK3 (human) = ADCK3 (human) (UniProt Q8NI60)
CDC42BPA (human) = CDC42BPA (human) (UniProt Q5VT25)
CDC42BPB (human) = CDC42BPB (human) (UniProt Q9Y5S2)
DCLK2 (human) = DCLK2 (human) (UniProt Q8N568)
DCLK3 (human) = DCLK3 (human) (UniProt Q9C098)
DMPK (human) = DMPK (human) (UniProt Q09013)
DYRK2 (human) = DYRK2 (human) (UniProt Q92630)
EPHA2 (human) = EPHA2 (human) (UniProt P29317)
EPHA3 (human) = EPHA3 (human) (UniProt P29320)
EPHA5 (human) = EPHA5 (human) (UniProt P54756)
FGFR3 (human) = FGFR3 (human) (UniProt P22607)
GRK7 (human) = GRK7 (human) (UniProt Q8WTQ7)
ICK (human) = ICK (human) (UniProt Q9UPZ9)
IGF1R (human) = IGF1R (human) (UniProt P08069)
INSRR (human) = INSRR (human) (UniProt P14616)
IRAK1 (human) = IRAK1 (human) (UniProt P51617)
[1] = biological target: JAK3 JH1 catalytic (human) (UniProt P52333)
MAP2K2 (human) = MAP2K2 (human) (UniProt P36507)
MAPK14 (human) = MAPK14 (human) (UniProt Q16539)
MARK1 (human) = MARK1 (human) (UniProt Q9P0L2)
MELK (human) = MELK (human) (UniProt Q14680)
[2] = test system: MET (human), P08581 [M1250T]
MST4 (human) = MST4 (human) (UniProt Q9P289)
NLK (human) = NLK (human) (UniProt Q9UBE8)
PAK1 (human) = PAK1 (human) (UniProt Q13153)
[3] = test system: PIK3CA (human), P42336 [E542K]
PIP5K1C (human) = PIP5K1C (human) (UniProt O60331)
PLK3 (human) = PLK3 (human) (UniProt Q9H4B4)
PRKACB (human) = PRKACB (human) (UniProt P22694)
PRKX (human) = PRKX (human) (UniProt P51817)
RPS6KA2 KD1 (human) = RPS6KA2 KD1 (human) (UniProt Q15349)
RPS6KA3 KD1 (human) = RPS6KA3 KD1 (human) (UniProt P51812)
RPS6KA5 KD1 (human) = RPS6KA5 KD1 (human) (UniProt O75582)
SBK1 (human) = SBK1 (human) (UniProt Q52WX2)
SGK3 (human) = SGK3 (human) (UniProt Q96BR1)
STK36 (human) = STK36 (human) (UniProt Q9NRP7)
TEC (human) = TEC (human) (UniProt P42680)
TGFBR1 (human) = TGFBR1 (human) (UniProt P36897)
ULK2 (human) = ULK2 (human) (UniProt Q8IYT8)
KIT (human) = KIT (human) (UniProt P10721)
[4] = test system: KIT (human), P10721 [A829P]

JAK3 JH1 catalytic (human), sequence (P52333 whole entry, looked up): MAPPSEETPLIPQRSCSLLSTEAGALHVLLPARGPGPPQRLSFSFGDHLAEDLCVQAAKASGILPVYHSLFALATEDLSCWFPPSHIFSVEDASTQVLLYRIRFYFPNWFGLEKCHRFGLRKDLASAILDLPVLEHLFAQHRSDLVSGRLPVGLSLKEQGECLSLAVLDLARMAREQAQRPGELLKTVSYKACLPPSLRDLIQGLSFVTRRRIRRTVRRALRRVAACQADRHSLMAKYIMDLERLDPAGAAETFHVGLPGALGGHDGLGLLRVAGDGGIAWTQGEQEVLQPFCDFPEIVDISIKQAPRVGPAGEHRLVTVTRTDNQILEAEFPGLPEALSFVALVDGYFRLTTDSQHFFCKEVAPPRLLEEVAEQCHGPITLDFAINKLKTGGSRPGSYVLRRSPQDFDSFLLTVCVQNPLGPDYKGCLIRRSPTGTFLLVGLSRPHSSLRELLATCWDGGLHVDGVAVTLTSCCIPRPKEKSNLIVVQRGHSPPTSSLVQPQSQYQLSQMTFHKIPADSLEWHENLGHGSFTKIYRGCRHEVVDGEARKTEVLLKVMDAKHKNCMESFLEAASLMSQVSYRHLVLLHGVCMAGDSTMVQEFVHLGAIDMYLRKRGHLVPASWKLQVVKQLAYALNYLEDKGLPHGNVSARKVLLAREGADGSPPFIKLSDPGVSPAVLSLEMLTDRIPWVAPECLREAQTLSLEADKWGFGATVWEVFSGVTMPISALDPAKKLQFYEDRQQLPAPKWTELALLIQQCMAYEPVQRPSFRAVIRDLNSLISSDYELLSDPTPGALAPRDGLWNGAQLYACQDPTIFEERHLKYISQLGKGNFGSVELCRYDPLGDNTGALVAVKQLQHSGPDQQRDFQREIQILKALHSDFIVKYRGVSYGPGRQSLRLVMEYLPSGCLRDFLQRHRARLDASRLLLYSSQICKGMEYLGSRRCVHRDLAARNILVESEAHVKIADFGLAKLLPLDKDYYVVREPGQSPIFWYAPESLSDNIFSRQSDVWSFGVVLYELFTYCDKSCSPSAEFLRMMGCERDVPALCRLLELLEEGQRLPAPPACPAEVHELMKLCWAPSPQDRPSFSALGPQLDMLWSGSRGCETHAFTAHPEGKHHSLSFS
NLK (human), sequence (Q9UBE8 whole entry, looked up): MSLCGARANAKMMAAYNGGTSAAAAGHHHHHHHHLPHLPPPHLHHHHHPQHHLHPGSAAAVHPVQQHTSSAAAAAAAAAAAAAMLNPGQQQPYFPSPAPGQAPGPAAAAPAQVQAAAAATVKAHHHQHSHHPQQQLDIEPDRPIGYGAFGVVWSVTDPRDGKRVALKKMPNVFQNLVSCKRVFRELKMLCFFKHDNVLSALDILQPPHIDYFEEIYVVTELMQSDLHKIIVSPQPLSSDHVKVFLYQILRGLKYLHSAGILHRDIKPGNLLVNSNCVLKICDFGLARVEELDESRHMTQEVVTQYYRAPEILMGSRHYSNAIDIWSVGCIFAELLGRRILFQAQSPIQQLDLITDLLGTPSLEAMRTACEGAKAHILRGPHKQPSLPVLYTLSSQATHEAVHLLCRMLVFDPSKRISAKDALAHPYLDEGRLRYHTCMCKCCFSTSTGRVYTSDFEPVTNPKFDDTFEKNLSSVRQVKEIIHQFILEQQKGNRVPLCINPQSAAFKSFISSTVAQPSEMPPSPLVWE
STK36 (human), sequence (Q9NRP7 whole entry, looked up): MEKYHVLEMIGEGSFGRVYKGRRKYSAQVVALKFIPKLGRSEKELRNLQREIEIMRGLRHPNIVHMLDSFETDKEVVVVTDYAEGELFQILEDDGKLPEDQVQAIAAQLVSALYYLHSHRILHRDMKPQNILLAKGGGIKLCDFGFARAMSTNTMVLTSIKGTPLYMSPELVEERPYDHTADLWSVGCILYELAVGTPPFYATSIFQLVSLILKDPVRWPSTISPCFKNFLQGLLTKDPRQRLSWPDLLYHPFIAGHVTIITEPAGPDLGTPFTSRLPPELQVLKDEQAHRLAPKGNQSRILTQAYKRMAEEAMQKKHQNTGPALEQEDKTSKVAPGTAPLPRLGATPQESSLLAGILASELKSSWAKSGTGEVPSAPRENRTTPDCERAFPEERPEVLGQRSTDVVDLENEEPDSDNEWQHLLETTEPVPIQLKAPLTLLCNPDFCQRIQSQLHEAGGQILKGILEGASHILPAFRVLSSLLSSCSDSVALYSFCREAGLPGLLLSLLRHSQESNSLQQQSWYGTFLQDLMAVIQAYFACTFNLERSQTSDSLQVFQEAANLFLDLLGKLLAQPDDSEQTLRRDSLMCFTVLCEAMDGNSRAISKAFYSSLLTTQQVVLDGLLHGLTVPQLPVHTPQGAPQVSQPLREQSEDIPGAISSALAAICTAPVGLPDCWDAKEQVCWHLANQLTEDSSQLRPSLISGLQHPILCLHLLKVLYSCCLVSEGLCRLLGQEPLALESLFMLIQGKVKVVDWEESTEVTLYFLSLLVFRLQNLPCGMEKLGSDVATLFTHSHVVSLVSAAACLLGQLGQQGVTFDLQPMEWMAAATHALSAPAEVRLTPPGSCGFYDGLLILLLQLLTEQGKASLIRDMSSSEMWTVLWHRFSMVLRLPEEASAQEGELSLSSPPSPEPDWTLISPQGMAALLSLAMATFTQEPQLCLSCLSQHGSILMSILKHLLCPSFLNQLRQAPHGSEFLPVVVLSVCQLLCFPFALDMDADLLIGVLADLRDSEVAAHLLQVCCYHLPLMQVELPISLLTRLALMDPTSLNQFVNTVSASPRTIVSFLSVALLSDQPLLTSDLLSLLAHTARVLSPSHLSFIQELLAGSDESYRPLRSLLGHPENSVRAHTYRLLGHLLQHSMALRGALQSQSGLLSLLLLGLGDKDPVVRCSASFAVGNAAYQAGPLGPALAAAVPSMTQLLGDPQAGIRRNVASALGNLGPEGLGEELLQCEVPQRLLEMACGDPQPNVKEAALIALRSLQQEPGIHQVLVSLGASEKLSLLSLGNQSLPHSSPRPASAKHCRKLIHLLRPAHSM
MAP2K2 (human), sequence (P36507 whole entry, looked up): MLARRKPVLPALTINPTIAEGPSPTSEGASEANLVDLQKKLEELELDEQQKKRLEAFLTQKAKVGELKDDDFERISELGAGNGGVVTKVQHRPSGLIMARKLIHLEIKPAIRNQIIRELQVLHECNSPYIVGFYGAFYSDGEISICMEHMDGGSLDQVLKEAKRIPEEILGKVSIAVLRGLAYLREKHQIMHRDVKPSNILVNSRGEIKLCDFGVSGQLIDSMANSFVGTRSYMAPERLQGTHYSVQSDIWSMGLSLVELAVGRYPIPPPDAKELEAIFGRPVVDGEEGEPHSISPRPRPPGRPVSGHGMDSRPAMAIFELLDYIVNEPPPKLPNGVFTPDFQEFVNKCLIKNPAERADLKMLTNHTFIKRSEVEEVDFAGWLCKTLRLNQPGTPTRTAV
PIP5K1C (human), sequence (O60331 whole entry, looked up): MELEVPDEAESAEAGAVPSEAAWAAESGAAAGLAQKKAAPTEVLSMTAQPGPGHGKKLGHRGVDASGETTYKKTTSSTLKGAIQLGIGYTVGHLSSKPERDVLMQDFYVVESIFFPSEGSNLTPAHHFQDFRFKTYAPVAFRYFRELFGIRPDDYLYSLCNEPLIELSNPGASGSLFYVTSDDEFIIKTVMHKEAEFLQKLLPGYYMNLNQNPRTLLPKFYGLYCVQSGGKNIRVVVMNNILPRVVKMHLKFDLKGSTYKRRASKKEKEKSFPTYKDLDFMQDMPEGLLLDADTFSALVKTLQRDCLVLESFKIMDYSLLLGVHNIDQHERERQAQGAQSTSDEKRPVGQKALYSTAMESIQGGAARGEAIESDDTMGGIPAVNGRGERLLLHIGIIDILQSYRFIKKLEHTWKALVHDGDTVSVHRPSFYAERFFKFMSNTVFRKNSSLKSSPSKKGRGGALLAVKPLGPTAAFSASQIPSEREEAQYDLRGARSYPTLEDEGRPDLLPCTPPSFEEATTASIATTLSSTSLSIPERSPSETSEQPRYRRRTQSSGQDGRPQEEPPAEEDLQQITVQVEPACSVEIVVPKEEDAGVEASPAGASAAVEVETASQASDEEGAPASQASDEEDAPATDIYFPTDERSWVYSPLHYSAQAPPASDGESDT
PLK3 (human), sequence (Q9H4B4 whole entry, looked up): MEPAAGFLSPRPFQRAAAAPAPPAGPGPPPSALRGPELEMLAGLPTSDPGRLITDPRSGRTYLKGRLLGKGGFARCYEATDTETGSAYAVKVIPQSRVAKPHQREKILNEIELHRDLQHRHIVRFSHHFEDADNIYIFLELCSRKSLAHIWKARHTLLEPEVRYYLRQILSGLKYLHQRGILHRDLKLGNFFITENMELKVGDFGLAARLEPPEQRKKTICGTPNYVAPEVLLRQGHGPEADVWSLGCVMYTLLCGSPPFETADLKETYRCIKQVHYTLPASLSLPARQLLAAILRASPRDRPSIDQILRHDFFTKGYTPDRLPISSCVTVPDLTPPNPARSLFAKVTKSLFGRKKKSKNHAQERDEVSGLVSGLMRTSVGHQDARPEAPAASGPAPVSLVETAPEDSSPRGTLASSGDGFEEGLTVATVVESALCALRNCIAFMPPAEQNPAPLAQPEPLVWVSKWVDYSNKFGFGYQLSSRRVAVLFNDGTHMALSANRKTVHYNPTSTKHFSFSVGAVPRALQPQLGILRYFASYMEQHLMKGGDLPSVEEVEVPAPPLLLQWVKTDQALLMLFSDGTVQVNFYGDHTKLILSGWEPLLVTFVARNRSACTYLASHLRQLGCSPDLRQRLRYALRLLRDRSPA
MAPK14 (human), sequence (Q16539 whole entry, looked up): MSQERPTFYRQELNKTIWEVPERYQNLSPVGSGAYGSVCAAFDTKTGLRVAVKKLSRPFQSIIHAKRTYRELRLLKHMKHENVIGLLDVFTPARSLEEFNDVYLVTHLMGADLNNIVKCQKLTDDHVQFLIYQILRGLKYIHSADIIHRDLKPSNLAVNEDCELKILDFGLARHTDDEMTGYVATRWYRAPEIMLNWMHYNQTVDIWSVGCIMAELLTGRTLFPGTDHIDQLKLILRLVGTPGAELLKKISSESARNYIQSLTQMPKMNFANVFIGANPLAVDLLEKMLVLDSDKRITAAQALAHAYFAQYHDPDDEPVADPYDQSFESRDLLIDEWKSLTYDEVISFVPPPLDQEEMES

Structure (SMILES)	kinase still bound, per cent of control (ADCK3 (human)) [%]	kinase still bound, per cent of control (CDC42BPA (human)) [%]	kinase still bound, per cent of control (CDC42BPB (human)) [%]	kinase still bound, per cent of control (DCLK2 (human)) [%]	kinase still bound, per cent of control (DCLK3 (human)) [%]	kinase still bound, per cent of control (DMPK (human)) [%]	kinase still bound, per cent of control (DYRK2 (human)) [%]	kinase still bound, per cent of control (EPHA2 (human)) [%]	kinase still bound, per cent of control (EPHA3 (human)) [%]	kinase still bound, per cent of control (EPHA5 (human)) [%]	kinase still bound, per cent of control (FGFR3 (human)) [%]	kinase still bound, per cent of control (GRK7 (human)) [%]	kinase still bound, per cent of control (ICK (human)) [%]	per cent of control (IGF1R (human)) [%]	kinase still bound, per cent of control (INSRR (human)) [%]	kinase still bound, per cent of control (IRAK1 (human)) [%]	kinase still bound, per cent of control [1] [%]	kinase still bound, per cent of control (MAP2K2 (human)) [%]	kinase still bound, per cent of control (MAPK14 (human)) [%]	kinase still bound, per cent of control (MARK1 (human)) [%]	also measured
CCC(=O)N1CCN(c2ccc(-n3c(=O)ccc4cnc5ccc(-c6cnc7ccccc7c6)cc5c43)cc2C(F)(F)F)CC1	17	0.65	3.4	100	97	77	86	59	70	100	42	100	100	94	100	100	100	100	90	100	kinase still bound, per cent of control (MELK (human)): 50%; kinase still bound, per cent of control [2]: 79%; kinase still bound, per cent of control (MST4 (human)): 89%; kinase still bound, per cent of control (NLK (human)): 25%; kinase still bound, per cent of control (PAK1 (human)): 73%; kinase still bound, per cent of control [3]: 1%; kinase still bound, per cent of control (PIP5K1C (human)): 80%; kinase still bound, per cent of control (PLK3 (human)): 87%; per cent of control (PRKACB (human)): 100%; kinase still bound, per cent of control (PRKX (human)): 83%; kinase still bound, per cent of control (RPS6KA2 KD1 (human)): 100%; kinase still bound, per cent of control (RPS6KA3 KD1 (human)): 38%; kinase still bound, per cent of control (RPS6KA5 KD1 (human)): 100%; kinase still bound, per cent of control (SBK1 (human)): 88%; kinase still bound, per cent of control (SGK3 (human)): 100%; kinase still bound, per cent of control (STK36 (human)): 17%; kinase still bound, per cent of control (TEC (human)): 99%; kinase still bound, per cent of control (TGFBR1 (human)): 70%; kinase still bound, per cent of control (ULK2 (human)): 75%
CC(C)n1nc(-c2cc3cc(O)ccc3[nH]2)c2c(N)ncnc21	57	74	71	100	10	0.55	1.4	9.4	1.5	55	9.2	2.9	58	100	100	25	0	0.4	95	81	kinase still bound, per cent of control (KIT (human)): 0.8%; kinase still bound, per cent of control [4]: 10%; kinase still bound, per cent of control (MELK (human)): 10%; kinase still bound, per cent of control [2]: 100%; kinase still bound, per cent of control (MST4 (human)): 31%; kinase still bound, per cent of control (NLK (human)): 10%; kinase still bound, per cent of control (PAK1 (human)): 52%; kinase still bound, per cent of control (PIP5K1C (human)): 9.8%; kinase still bound, per cent of control (PLK3 (human)): 33%; per cent of control (PRKACB (human)): 65%; kinase still bound, per cent of control (PRKX (human)): 100%; kinase still bound, per cent of control (RPS6KA2 KD1 (human)): 48%; kinase still bound, per cent of control (RPS6KA3 KD1 (human)): 0.35%; kinase still bound, per cent of control (RPS6KA5 KD1 (human)): 100%; kinase still bound, per cent of control (SBK1 (human)): 92%; kinase still bound, per cent of control (SGK3 (human)): 81%; kinase still bound, per cent of control (STK36 (human)): 100%; kinase still bound, per cent of control (TEC (human)): 100%; kinase still bound, per cent of control (TGFBR1 (human)): 1.1%; kinase still bound, per cent of control (ULK2 (human)): 39%
COC(=O)Nc1ccc(-c2nc(N3CCOCC3)c3cnn(C4CCN(C(=O)OC)CC4)c3n2)cc1	80	100	96	95	92	100	82	100	84	100	99	100	85	98	100	100	100	100	80	100	kinase still bound, per cent of control (KIT (human)): 100%; kinase still bound, per cent of control [4]: 91%; kinase still bound, per cent of control (MELK (human)): 86%; kinase still bound, per cent of control (MST4 (human)): 80%; kinase still bound, per cent of control (NLK (human)): 99%; kinase still bound, per cent of control (PAK1 (human)): 95%; kinase still bound, per cent of control [3]: 5.2%; kinase still bound, per cent of control (PIP5K1C (human)): 100%; kinase still bound, per cent of control (PLK3 (human)): 93%; per cent of control (PRKACB (human)): 97%; kinase still bound, per cent of control (PRKX (human)): 100%; kinase still bound, per cent of control (RPS6KA2 KD1 (human)): 100%; kinase still bound, per cent of control (RPS6KA3 KD1 (human)): 76%; kinase still bound, per cent of control (RPS6KA5 KD1 (human)): 100%; kinase still bound, per cent of control (SBK1 (human)): 100%; kinase still bound, per cent of control (SGK3 (human)): 99%; kinase still bound, per cent of control (STK36 (human)): 91%; kinase still bound, per cent of control (TEC (human)): 96%; kinase still bound, per cent of control (TGFBR1 (human)): 100%; kinase still bound, per cent of control (ULK2 (human)): 99%

From the kinase profiling compilation of Christmann-Franck et al. (2016)
